In US7834040B2, “Isoxazolic derivative to relieve neuropathic pain” (Zambon S.p.A., priority 2004, dated 2010):
Entries after “also recorded” stand apart in the source; their conditions may differ.

What was measured:
[1] = system: neuropathic pain caused by chronic constrictive lesion of the sciatic nerve of the rat's hind leg (CCI); assay: Mechanical allodinia in the CCI model of neuropathic pain (chronic constrictive lesion of the sciatic nerve); assay type: in vivo, male rats of Wistar strain
Text: The effectiveness of the compound of formula (I) has been tested experimentally in two different models of neuropathic pain caused by chronic constrictive lesion of the sciatic nerve of the rat's hind leg (CCI) and by the ligament of the rat's spinal nerve (SNL), according to the procedure reported in the following experimental part. To a group of male rats of Wistar strain a peripheral neuropathy has been induced by means of ligature of the sciatic nerve (CCI) according to the Bennet and Xie model (Pain 33:87-107, 1988). In order to evaluate the neuropathic pain, the development of mechanical allodinia was measured by calculating the average of the pain perception thresholds in the animals' legs in response to mechanical stimuli, following the method described by Chaplan et al. (Journal Neurosci. Method. 53:55-63, […]). In the first group of experiments the measurements have been carried out before and 14 days after the ligature of the […] (CCI). In the second group of experiments the same parameter has been similarly evaluated before and 14 days after the ligature of the spinal nerve (SNL). In both groups, the mechanical allodinia threshold has been measured before (pre-treatment) and 0.5, 1, 2, 4 and 6 hours after treatment by oral route with the compound of formula (I) at doses of 3, 30 and 300 mg/kg.

[2] = system: neuropathic pain caused by the ligament of the rat's spinal nerve (SNL); assay: Mechanical allodinia in the SNL model of neuropathic pain (ligature of the spinal nerve); assay type: in vivo, male rats of Wistar strain
Text: The effectiveness of the compound of formula (I) has been tested experimentally in two different models of neuropathic pain caused by chronic constrictive lesion of the sciatic nerve of the rat's hind leg (CCI) and by the ligament of the rat's spinal nerve (SNL), according to the procedure reported in the following experimental part. To a second group of male rats of Wistar strain a peripheral neuropathy has been induced by means of ligature of the spinal nerve according to the modified method described by Kim and Chung and which is constituted by the ligature of two (L5-L6) of the three spinal nerves which form the sciatic nerve (Pain 50:355-363, 1992). In order to evaluate the neuropathic pain, the development of mechanical allodinia was measured by calculating the average of the pain perception thresholds in the animals' legs in response to mechanical stimuli, following the method described by Chaplan et al. (Journal Neurosci. Method. 53:55-63, […]). In the first group of experiments the measurements have been carried out before and 14 days after the ligature of the […] (CCI). In the second group of experiments the same parameter has been similarly evaluated before and 14 days after the ligature of the spinal nerve (SNL). In both groups, the mechanical allodinia threshold has been measured before (pre-treatment) and 0.5, 1, 2, 4 and 6 hours after treatment by oral route with the compound of formula (I) at doses of 3, 30 and 300 mg/kg.

neuropathic pain = conditions: Rashid et al., J. Pharmacol. Exp. Ther. 303:226-231, 2002; cited from earlier work
[3] = oral route, 3, 30 and 300 mg/kg, 0.5-6 hours after treatment, 14 days after ligature

Cc1cc(C(=O)NCCCC(=O)O)on1 [compound of formula (I)]
dose from which the antiallodinic effect is statistically significative ([1]; oral route): ≥ 3 mg/kg | time after treatment up to which the antiallodinic effect is detected ([1]; oral route): up to 6 hours | mechanical allodinia (pain perception threshold to mechanical stimuli) [1, 3]: reduced in a dose-depending way the mechanical allodinia; also recorded: marked reduction in the neuropathic allodinia | dose from which the antiallodinic effect is statistically significative ([2]; oral route): ≥ 3 mg/kg | time after treatment up to which the antiallodinic effect is detected ([2]; oral route): up to 6 hours | mechanical allodinia (pain perception threshold to mechanical stimuli) [2, 3]: reduced in a dose-depending way the mechanical allodinia; also recorded: marked reduction in the neuropathic allodinia

CC[C@H](C(N)=O)N1CCCC1=O [levitiracetam]
analgesic effect with respect to the neuropathic pain (neuropathic pain): do not produce significant analgesic effects

Cc1cccc(C)c1NC(=O)CN1CCCC1=O [nefiracetam]
analgesic effect with respect to the neuropathic pain (neuropathic pain): powerful analgesic effect

NC(=O)CN1CC(O)CC1=O (stereo not shown) [oxiracetam]
analgesic effect with respect to the neuropathic pain (neuropathic pain): do not produce significant analgesic effects

NC(=O)CN1CCCC1=O [piracetam]
analgesic effect with respect to the neuropathic pain (neuropathic pain): do not produce significant analgesic effects
